Test [1] has as its system human skin scarring model. Description: Scar thickness by H+E stain. Type of test: in vivo. Conditions: weeks 4 and 8, Groups 1, 2 and 4. How it is done:
A double-blind randomized placebo-controlled trial was conducted using a temporal punch-biopsy model. The punch biopsy and topical application methodology used in the study is illustrated in FIG. 1, namely showing pre-injury pre-emptive priming (7-days), pre-injury pre-emptive priming (3-days), day of injury (immediate application on day 0), post-injury (delayed 2 weeks post injury) including biopsy time points and time of topical applications. Each group applied both placebo and topical formulations twice daily for the duration of the study until week 8, with only the starting time point differing between groups Participants were split into 4 groups (n=10 in each group) in order to compare different modes (timings) of commencement of the topical application: • Group-1: Pre-emptive Priming (7-days): pre-injury • Group-2: Pre-emptive Priming (3-days): pre-injury • Group-3: Immediate (0-day): day-of-injury • Group-4: Delayed (14-days): post-injury Clinical quantitative devices were used to objectively monitor cutaneous healing at weekly intervals and punch biopsies were performed on day 0 (uninjured skin) and at weeks 4 and 8 for protein and gene expression analyses. […] Excisional skin biopsies in upper arms were evaluated weekly with multiple quantitative devices over an 8-week period. […]

The subject of test [2] is human skin models. Conditions: ex vivo human skin models; cited from earlier work.

Take `O=C(OC1Cc2c(O)cc(O)cc2OC1c1cc(O)c(O)c(O)c1)c1cc(O)c(O)c(O)c1` (single isomer, unassigned; (-)) [EGCG, (-)-epigallocatechin-3-gallate]: the “Scar thickness by H+E stain with EGCG” value in test [1] is recorded as “reduced scar thickness”. In test [2], the “Effect on scar growth” value is “inhibited growth and induced scar shrinkage”; the “Mast cell (MC) numbers” value is recorded as “significantly reduced mast cell (MC) numbers”.

Source of the values: patent publication US12691092B2, “Method for reducing cutaneous skin scarring by pre-emptive priming and compounds and compositions for its implementation” (SOS SCIENCE OF SKIN LTD, priority 2020, dated 2026).
